{
  "source": "patent US20240327421A1",
  "about": "(Marquette University, priority 2017, published 2024)",
  "key": {"[1]": {"biological_target": "T1, human ER Alpha ligand-binding domain (LBD) (Homo sapiens, UniProt P03372)", "T1 construct": "purchased Thermo Fisher Scientific", "T1 sequence (P03372 311-547 limits assumed)": "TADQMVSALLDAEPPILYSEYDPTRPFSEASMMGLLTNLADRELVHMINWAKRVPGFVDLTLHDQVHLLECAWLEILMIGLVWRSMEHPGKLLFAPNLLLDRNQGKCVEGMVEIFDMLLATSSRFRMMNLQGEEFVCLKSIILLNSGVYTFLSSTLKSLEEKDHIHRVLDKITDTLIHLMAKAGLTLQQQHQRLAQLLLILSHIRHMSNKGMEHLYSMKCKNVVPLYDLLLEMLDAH", "assay": "TR-FRET competitive binding assay, ERα LBD", "details": "displacement of fluorescent tracer from ERα LBD", "text": "TR-FRET Assay. LanthaScreen® TR-FRET ER Alpha and Beta Competitive Binding Assay kits from Thermo Fisher Scientific were used to perform the TR-FRET assays. These included a terbium-labeled anti-GST antibody, a fluorescent small molecule ER Alpha or Beta ligand as a “tracer”, and a human ER Alpha or Beta ligand -binding domain (LBD) that is tagged with glutathione-S-transferase (GST) in a homogenous mix- and -read assay format.\nThe TR-FRET assay employs a Tb-anti-GST antibody that binds to a GST tag, and a fluorescently labeled estrogen (tracer) binds in the active site pocket. The TR-FRET signal obtained decreases when competitor compounds displace the fluorescently labeled tracer. Assays were performed according to kit instructions. Briefly, 1:5 dilution series of compounds were made with DMSO, then diluted in assay buffer such that the highest concentration tested in the assay was 50 μM for ERβ and 50 μM for ERα and DMSO was 1%. […] TR-FRET signal was read on a SpectraMax M5 (Molecular Devices) set-up according to Thermo Fisher Scientific machine settings (excitation of 332 nm, emissions 518 nm and 488 nm with a 420 nm cutoff, 50 μs integration delay, 400 μs integration time, and 100 flashes per read). The TR-FRET ratio was calculated using the SoftmaxPro software by dividing the emission at 518 nm (fluorescein) by the emission at 488 nm (Terbium). […]"}, "[2]": {"biological_target": "T2, ERα LBD fused to GAL4 DBD (Homo sapiens, UniProt P03372)", "T2 sequence (P03372 311-547 limits assumed)": "T1 sequence (P03372 311-547 limits assumed)", "assay": "GeneBLAzer cell-based transcriptional activation, chimeric ERα", "details": "agonist mode"}, "ERα": {"biological_target": "T3, ERα (Homo sapiens, UniProt P03372)", "T3 construct": "employs a full length and native ER (comprised of an ER LBD and an ER DBD)", "T3 sequence (P03372 1-595)": "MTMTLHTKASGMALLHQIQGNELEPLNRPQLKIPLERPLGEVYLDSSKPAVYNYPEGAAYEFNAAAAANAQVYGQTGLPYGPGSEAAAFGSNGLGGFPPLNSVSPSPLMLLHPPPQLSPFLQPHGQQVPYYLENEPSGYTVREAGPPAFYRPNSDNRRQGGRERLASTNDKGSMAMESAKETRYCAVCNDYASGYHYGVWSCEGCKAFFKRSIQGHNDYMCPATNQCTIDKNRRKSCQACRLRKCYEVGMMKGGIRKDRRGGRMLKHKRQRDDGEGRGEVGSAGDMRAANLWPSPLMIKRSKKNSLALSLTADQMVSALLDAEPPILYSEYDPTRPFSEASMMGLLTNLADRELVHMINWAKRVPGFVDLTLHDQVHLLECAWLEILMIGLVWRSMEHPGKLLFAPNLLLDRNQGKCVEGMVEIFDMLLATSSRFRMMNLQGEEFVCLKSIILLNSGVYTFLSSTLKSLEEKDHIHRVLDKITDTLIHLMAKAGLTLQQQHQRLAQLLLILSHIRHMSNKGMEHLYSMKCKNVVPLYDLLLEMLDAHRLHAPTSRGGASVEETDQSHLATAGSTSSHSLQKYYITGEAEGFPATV", "assay": "Cell-based luciferase reporter assay, full length ERα, agonist mode", "details": "full length ERα, 22 h, read-out: ERα agon. IC50"}, "ovariectomized mice [3]": {"system": "ovariectomized mice", "assay": "Bloodwork chemistry and hematology panel", "assay_type": "in vivo", "details": "single IP injection, 0.5 or 5 mg/kg", "experimental": "FIG. 14. Bloodwork panel for tissue pathology analysis for ISP358-2. Bloodwork hematology analysis was performed by Animal Reference Pathology, LLC in Salt Lake City, Utah (animalreferencepathology.com). Reference ranges are from Charles River Laboratories for CrL: Wi (Han) female 8-16 weck old rats. Blood samples were taken via cardiac puncture at the same time point and treatment conditions as in FIGS. 13A-13M. […] In some cases hemolysis occurred, likely due to the blood collection procedure, which precluded analysis for those samples, thus, samples sizes in the analysis were 6-8. The mean and standard error of the mean of cach group is listed in the table, along with outcomes from one-way ANOVA statistical analysis. […] The hematology samples were analyzed by a Sysmex XT-2000iV using veterinary software and the rat species setting.^3 The reagents for individual assays were sourced from either Seimens, RandOx or Sekisui."}, "[4]": {"assay": "Nephelometry (aggregation / solubility)"}, "ovariectomized mice [5]": {"system": "ovariectomized mice", "assay": "Object recognition memory consolidation test"}, "ovariectomized mice [6]": {"system": "ovariectomized mice", "assay": "Object placement (spatial memory consolidation) test", "details": "for object placement: spatial memory consolidation after long-term ovariectomy: oral gavage 4 months after ovariectomy, same doses (0.5 or 5 mg/kg ISP358-2, 0.05 mg/kg DPN), preliminary"}, "[7]": {"details": "IP injection, 0.5 mg/kg, listed as ISP358-2, 0.5 mg/kg"}},
  "note": "Where “and” joins values, the source holds several entries; their conditions need not be identical. Identical values can stand only once. Entries after “also recorded” stand apart in the source; their conditions may differ.",
  "data": [
    {"compound": "OC[C@H]1CC[C@H](c2ccc(O)cc2)CC1", "note": "[Compound 16]", "values": [
      {"measurement": "IC50", "setting": "[1]", "result": "289 ± 92", "unit": "nM"},
      {"measurement": "IC50", "setting": "[2]", "result": "930 ± 69", "unit": "nM"},
      {"measurement": "IC50", "setting": "ERα", "result": "20.4 µM and 18.6 µM"},
      {"measurement": "bloodwork chemistry and hematology vs reference ranges", "setting": "ovariectomized mice [3]", "result": "do not show significant deviations from expected reference ranges"},
      {"measurement": "solubility / aggregation by nephelometry", "setting": "[4]", "result": "reasonably soluble"},
      {"measurement": "object recognition: time with novel object / memory consolidation", "setting": "ovariectomized mice [5]; [7]", "result": "exhibited a significant preference for the novel object relative to chance; also recorded: most effectively enhanced consolidation; also recorded: enhanced memory consolidation"},
      {"measurement": "object recognition: time with novel object / memory consolidation", "setting": "ovariectomized mice [5]; IP injection, 5 mg/kg", "result": "somewhat of a trend for the 5 mg/kg ISP358-2 to prefer the novel object"},
      {"measurement": "object recognition: time with novel object / memory consolidation", "setting": "ovariectomized mice [5]; dorsal hippocampal infusion, 10 pg/hemisphere, tested 48 h after training, chance 15 s", "result": "Neither the vehicle nor 10 pg ISP358-2 groups showed a preference for the novel object"},
      {"measurement": "object recognition: time with novel object / memory consolidation", "setting": "ovariectomized mice [5]; dorsal hippocampal infusion, 100 pg/hemisphere, tested 48 h after training, listed as ISP358-2", "result": "spent significantly more time than chance with the novel object; also recorded: enhanced memory consolidation; also recorded: significantly increased time was spent"},
      {"measurement": "object recognition: time with novel object / memory consolidation", "setting": "ovariectomized mice [5]; dorsal hippocampal infusion, 1 ng/hemisphere, tested 48 h after training, listed as ISP358-2", "result": "spent significantly more time than chance with the novel object; also recorded: enhanced memory consolidation; also recorded: significantly increased time was spent"},
      {"measurement": "object recognition: time with novel object / memory consolidation", "setting": "ovariectomized mice [5]; oral gavage, 0.5 mg/kg, listed as ISP358-2, 0.5 mg/kg", "result": "spent significantly more time with the novel object relative to chance; also recorded: enhanced memory consolidation"},
      {"measurement": "object recognition: time with novel object / memory consolidation", "setting": "ovariectomized mice [5]; oral gavage, 5 mg/kg, listed as ISP358-2, 5 mg/kg", "result": "spent significantly more time with the novel object relative to chance; also recorded: most effective; also recorded: enhanced memory consolidation"},
      {"measurement": "object placement: time with moved object / memory consolidation", "setting": "ovariectomized mice [6]; [7]", "result": "spent significantly more time than chance with the moved object; also recorded: most effectively enhanced consolidation; also recorded: enhanced memory consolidation"},
      {"measurement": "object placement: time with moved object / memory consolidation", "setting": "ovariectomized mice [6]; IP injection, 5 mg/kg, listed as ISP358-2, 5 mg/kg", "result": "spent significantly more time than chance with the moved object; also recorded: also enhanced OP memory consolidation"},
      {"measurement": "object placement: time with moved object / memory consolidation", "setting": "ovariectomized mice [6]; dorsal hippocampal infusion, 10 pg/hemisphere, tested 24 h after training, chance 15 s", "result": "did not spend significantly more time than chance with the moved object"},
      {"measurement": "object placement: time with moved object / memory consolidation", "setting": "ovariectomized mice [6]; dorsal hippocampal infusion, 100 pg/hemisphere, tested 24 h after training, listed as ISP358-2", "result": "spent significantly more time than chance with the moved object; also recorded: enhanced memory consolidation; also recorded: significantly increased time was spent"},
      {"measurement": "object placement: time with moved object / memory consolidation", "setting": "ovariectomized mice [6]; dorsal hippocampal infusion, 1 ng/hemisphere, tested 24 h after training, listed as ISP358-2", "result": "spent significantly more time than chance with the moved object; also recorded: enhanced memory consolidation; also recorded: significantly increased time was spent"},
      {"measurement": "object placement: spatial memory consolidation after long-term ovariectomy", "setting": "ovariectomized mice [6]", "result": "did not enhance spatial memory consolidation"},
      {"measurement": "object placement: spatial memory consolidation after long-term ovariectomy", "setting": "ovariectomized mice [6]; listed as ISP358-2", "result": "neither DPN nor ISP358-2 affected memory"},
      {"measurement": "object placement: time with moved object / memory consolidation", "setting": "ovariectomized mice [6]; oral gavage, 0.5 mg/kg, within 1 month of ovariectomy, listed as ISP358-2, 0.5 mg/kg", "result": "exhibited a significant preference for the moved object relative to chance; also recorded: enhanced memory consolidation"},
      {"measurement": "object placement: time with moved object / memory consolidation", "setting": "ovariectomized mice [6]; oral gavage, 5 mg/kg, within 1 month of ovariectomy, listed as ISP358-2, 5 mg/kg", "result": "exhibited a significant preference for the moved object relative to chance; also recorded: most effective; also recorded: enhanced memory consolidation"}
    ]}
  ]
}
